Experimental data taken from patent US8623859B2, “Bradykinin B1 antagonists” (Evotec AG, priority 2008, dated 2014).

molecular target: T1, human B1 (Homo sapiens, UniProt P46663); assay: Calcium flux assay for Bradykinin B1 antagonist, CHO-K1 cell line expressing human B1; type: cell-based; conditions: CHO-K1 cells expressing human B1, agonist Lys-(Des-Arg)-Bradykinin, read-out: Potency (IC50 value against human B1)
T1 construct: host or cells: CHO-K1
T1 sequence (P46663 1-353): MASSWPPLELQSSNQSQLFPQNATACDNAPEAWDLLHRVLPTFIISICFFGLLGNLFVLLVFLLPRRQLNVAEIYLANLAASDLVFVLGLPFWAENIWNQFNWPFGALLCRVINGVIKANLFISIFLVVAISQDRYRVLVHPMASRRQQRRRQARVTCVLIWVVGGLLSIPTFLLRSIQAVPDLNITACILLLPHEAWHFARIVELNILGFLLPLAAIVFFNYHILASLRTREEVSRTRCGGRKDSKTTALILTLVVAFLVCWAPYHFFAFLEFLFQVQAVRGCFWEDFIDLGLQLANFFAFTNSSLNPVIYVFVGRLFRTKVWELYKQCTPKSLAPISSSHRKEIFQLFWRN
Description: Calcium Flux Assay for Bradykinin B1 Antagonist
The potency to inhibit the Bradykinin B1 receptors was determined for the compounds of this invention in a cell-based fluorescent calcium-mobilization assay. The assay measures the ability of test compounds to inhibit Bradykinin B1 receptor agonist-induced increase of intracellular free Ca^2+ in cell lines expressing B1.
The change of the intracellular Ca^2+ concentration is monitored with a specifically designed fluorescent plate reader (FlexStation, Molecular Devices).
CHO-K1 cell line expressing human B1 was purchased from Euroscreen (Gosselies, Belgium, with reference name hBl-D1). CHO-K1 cell lines expressing rat B1 or mouse B1 were established in the following way: the full-length receptor-coding cDNA clones were obtained by PCR performed on rat or mouse brain cDNAs. The respective cDNAs were cloned into an expression vector under the control of a CMV promotor. The resultant plasmids were introduced into CHO-K1 cells with liposome technology (FuGENE; Roche Diagnostics, Basel), according to the standard protocols described by the manufacturer. Cell lines expressing a Bradykinin receptor were selected in the culture medium containing 400 μg/ml G418 (Sigma). From selected cell populations, monoclonal cell lines were isolated by single cell cloning. The expression of Bradykinin receptors was confirmed by immunofluorescence staining of the cells, as well as by calcium flux assay.
Human B1-expressing cells were grown in Nutrient Mixture Ham's F12 (Sigma) containing 10% Foetal bovine serum (Sigma) and 400 μg/ml G418 (Sigma), 5 μg/ml puromycim (Sigma); Rat B1 and mouse B1-expressing cells were grown in DMEM/F12 medium (Sigma) containing 10% Foetal bovine serum (Sigma) and 400 μg/ml G418 (Sigma).
For the calcium flux assay, 80% confluent cells were detached from the culture vessels with Versene (Gibco; for human B1 cell-line) or with 1× trypsin-EDTA solution (Sigma; for rodent B1 cell-line), and seeded into 384-well plates (Cell binding Surface; Corning, N.Y.; #3683) at a density of 15,000 cells per well for human B1 or at a density of 20,000 cells per well for rodent B1. Cells were seeded in a volume of 50 μl in medium without antibiotics and incubated overnight in a humidified atmosphere with 5% CO2 at 37° C. The following day, the medium was replaced with 20 μl of 5 μM Fluo-4AM dye (Molecular Probes) in assay buffer (2.5 mM probenicid, 1 mg/ml pluronic acid, 0.1% BSA, 135 mM NaCl, 5 mM KCl, 1.8 mM CaCl, 1 mM MgCl2, 10 mM HEPES, 5.6 mM glucose, 0.05% gelatine, pH 7.4). The calcium indicator loaded cells were incubated at 37° C. for 2 hrs. Extracellular dye was then removed and each well was filled with 45 μl of assay buffer. Cell plates were kept in dark until used. Test compounds were assayed at 8 concentrations in triplicate. Serial 10-fold dilutions in 100% DMSO were made at a 100-times higher concentration than the final concentration, and then diluted 1:10 in assay buffer. 5 μl of each diluted compound was added to the well of cell plates (yielding final concentration with 1% DMSO), and incubated for 30 min at 25° C. before the addition of B1 agonist on the FlexStation.
The addition of agonist 20 μl per well to the assay plate was carried out on the FlexStation while continuously monitoring Ca^2+-dependent fluorescence at 538 nm. The integrated values, normalized with the background fluorescence, were plotted against the logarithm of the antagonist concentrations.

SMILES	IC50 [µM]
COc1cc(C)c(S(=O)(=O)N(C)Cc2cc(C(=O)NCCc3ccc(Nc4cccc[n+]4C)cc3)co2)c(C)c1 [Ex 13, 2-({4-[2-({[5-({[(4-methoxy-2,6-dimethylphenyl)sulfonyl](methyl)amino}methyl)furan-3-yl]carbonyl}amino)ethyl]phenyl}amino)-1-methylpyridinium iodide]	< 0.01
COc1cc(C)c(S(=O)(=O)N(C)Cc2cc(C(=O)NCc3ccc(Nc4nccc(N)n4)cc3)co2)c(C)c1 [Ex 14, N-{4-[(4-aminopyrimidin-2-yl)amino]benzyl}-5-({[(4-methoxy-2,6-dimethylphenyl)sulfonyl](methyl)amino}methyl)furan-3-carboxamide]	0.1 to 1
CCc1cc(Br)ccc1S(=O)(=O)N(C)Cc1cc(C(=O)N2CCCN(CCCN3CCCC3)CC2)co1 [Ex 15, 4-bromo-2-ethyl-N-methyl-N-[(4-{[4-(3-pyrrolidin-1-ylpropyl)-1,4-diazepan-1-yl]carbonyl}furan-2-yl)methyl]benzenesulfonamide]	0.01 to 0.1
CCc1cc(Br)ccc1S(=O)(=O)N(C)Cc1cc(C(=O)NCc2cccc(CN3CCCC3)c2)co1 [Ex 16, 5-({[(4-bromo-2-ethylphenyl)sulfonyl](methyl)amino}methyl)-N-[3-(pyrrolidin-1-ylmethyl)benzyl]furan-3-carboxamide]	0.1 to 1
CN1CCC(CN2CCN(C(=O)c3coc(CN(C)S(=O)(=O)c4c(Cl)cccc4Cl)c3)CC2)CC1 [Ex 17, 2,6-dichloro-N-methyl-N-{[4-({4-[(1-methylpiperidin-4-yl)methyl]piperazin-1-yl}carbonyl)furan-2-yl]methyl}benzenesulfonamide]	0.1 to 1
CN(Cc1cc(C(=O)N2CCN(CCc3ccncc3)CC2)co1)S(=O)(=O)c1c(Cl)cccc1Cl [Ex 18, 2,6-dichloro-N-methyl-N-[(4-{[4-(2-pyridin-4-ylethyl)piperazin-1-yl]carbonyl}furan-2-yl)methyl]benzenesulfonamide]	0.1 to 1
CN(Cc1ccc(C2=NCCN2)cc1)C(=O)c1coc(CN(C)S(=O)(=O)c2c(Cl)cc(Br)cc2Cl)c1 [Ex 19, 5-({[(4-bromo-2,6-dichlorophenyl)sulfonyl](methyl)amino}methyl)-N-[4-(4,5-dihydro-1H-imidazol-2-yl)benzyl]-N-methylfuran-3-carboxamide]	< 0.01
Cc1cc(S(=O)(=O)N(C)Cc2cc(C(=O)N(C)Cc3ccc(C4=NCCN4)cc3)co2)c(C)cc1Cl [Ex 20, 5-({[(4-chloro-2,5-dimethylphenyl)sulfonyl](methyl)amino}methyl)-N-[4-(4,5-dihydro-1H-imidazol-2-yl)benzyl]-N-methylfuran-3-carboxamide]	< 0.01
CN(Cc1ccc(C2=NCCN2)cc1)C(=O)c1coc(CN(C)S(=O)(=O)c2ccc(Cl)cc2Cl)c1 [Ex 21, 5-({[(2,4-dichlorophenyl)sulfonyl](methyl)amino}methyl)-N-[4-(4,5-dihydro-1H-imidazol-2-yl)benzyl]-N-methylfuran-3-carboxamide]	< 0.01
CN(CCc1ccc(C2=NCCN2)cc1)C(=O)c1coc(CN(C)S(=O)(=O)c2ccc(Cl)cc2Cl)c1 [Ex 22, 5-({[(2,4-dichlorophenyl)sulfonyl](methyl)amino}methyl)-N-{2-[4-(4,5-dihydro-1H-imidazol-2-yl)phenyl]ethyl}-N-methylfuran-3-carboxamide]	0.1 to 1
CN(Cc1ccc(C2=NCCN2)cc1)C(=O)c1coc(CN(C)S(=O)(=O)c2c(Cl)cccc2Cl)c1 [Ex 23, 5-({[(2,6-dichlorophenyl)sulfonyl](methyl)amino}methyl)-N-[4-(4,5-dihydro-1H-imidazol-2-yl)benzyl]-N-methylfuran-3-carboxamide]	< 0.01
CN(CCc1ccc(C2=NCCN2)cc1)C(=O)c1coc(CN(C)S(=O)(=O)c2c(Cl)cc(Br)cc2Cl)c1 [Ex 24, 5-({[(4-bromo-2,6-dichlorophenyl)sulfonyl](methyl)amino}methyl)-N-{2-[4-(4,5-dihydro-1H-imidazol-2-yl)phenyl]ethyl}-N-methylfuran-3-carboxamide]	< 0.01
CN(Cc1cc(C(=O)NCCc2ccc(C3=NCCN3)cc2)co1)S(=O)(=O)c1c(Cl)cc(Br)cc1Cl [Ex 25, 5-({[(4-bromo-2,6-dichlorophenyl)sulfonyl](methyl)amino}methyl)-N-{2-[4-(4,5-dihydro-1H-imidazol-2-yl)phenyl]ethyl}furan-3-carboxamide]	0.1 to 1
CN(Cc1cc(C(=O)NCc2ccc(C3=NCCN3)cc2)co1)S(=O)(=O)c1c(Cl)cccc1Cl [Ex 26, 5-({[(2,6-dichlorophenyl)sulfonyl](methyl)amino}methyl)-N-[4-(4,5-dihydro-1H-imidazol-2-yl)benzyl]furan-3-carboxamide]	0.1 to 1
CN(Cc1cc(C(=O)NCc2ccc(CN3CCCC3)cc2)co1)S(=O)(=O)c1c(Cl)cc(Br)cc1Cl [Ex 27, 5-({[(4-bromo-2,6-dichlorophenyl)sulfonyl](methyl)amino}methyl)-N-[4-(pyrrolidin-1-ylmethyl)benzyl]furan-3-carboxamide]	0.1 to 1
Cc1cc(S(=O)(=O)N(C)Cc2cc(C(=O)N(C)CCc3ccc(C4=NCCN4)cc3)co2)c(C)cc1Cl [Ex 28, 5-({[(4-chloro-2,5-dimethylphenyl)sulfonyl](methyl)amino}methyl)-N-{2-[4-(4,5-dihydro-1H-imidazol-2-yl)phenyl]ethyl}-N-methylfuran-3-carboxamide]	0.1 to 1
COc1cc(C)c(S(=O)(=O)N(C)Cc2cc(C(=O)N(C)Cc3ccc(C4=NCCN4)cc3)co2)c(C)c1 [Ex 29, N-[4-(4,5-dihydro-1H-imidazol-2-yl)benzyl]-5-({[(4-methoxy-2,6-dimethylphenyl)sulfonyl](methyl)amino}methyl)-N-methylfuran-3-carboxamide]	< 0.01
COc1cc(C)c(S(=O)(=O)N(C)Cc2cc(C(=O)N3CCCC(c4ccc(C5=NCCN5)cc4)C3)co2)c(C)c1 (stereo not shown) [Ex 30, N-{[4-({3-[4-(4,5-dihydro-1H-imidazol-2-yl)phenyl]piperidin-1-yl}carbonyl)furan-2-yl]methyl}-4-methoxy-N,2,6-trimethylbenzenesulfonamide]	< 0.01
COc1cc(C)c(S(=O)(=O)N(C)Cc2cc(C(=O)N3CCN(CC4CCCN(C)C4)CC3)co2)c(C)c1 (stereo not shown) [Ex 31, 4-methoxy-N,2,6-trimethyl-N-{[4-({4-[(1-methylpiperidin-3-yl)methyl]piperazin-1-yl}carbonyl)furan-2-yl]methyl}benzenesulfonamide]	0.01 to 0.1
COc1cc(C)c(S(=O)(=O)N(C)Cc2cc(C(=O)N3CCN(CC4CCN(C)CC4)CC3)co2)c(C)c1 [Ex 32, 4-methoxy-N,2,6-trimethyl-N-{[4-({4-[(1-methylpiperidin-4-yl)methyl]piperazin-1-yl}carbonyl)furan-2-yl]methyl}benzenesulfonamide]	0.1 to 1
COc1cc(C)c(S(=O)(=O)N(C)Cc2cc(C(=O)N3CCN(CCc4ccncc4)CC3)co2)c(C)c1 [Ex 33, 4-methoxy-N,2,6-trimethyl-N-[(4-{[4-(2-pyridin-4-ylethyl)piperazin-1-yl]carbonyl}furan-2-yl)methyl]benzenesulfonamide]	0.1 to 1
COc1cc(C)c(S(=O)(=O)N(C)Cc2cc(C(=O)N3CCN(Cc4ccncc4)CC3)co2)c(C)c1 [Ex 34, 4-methoxy-N,2,6-trimethyl-N-[(4-{[4-(pyridin-4-ylmethyl)piperazin-1-yl]carbonyl}furan-2-yl)methyl]benzenesulfonamide]	0.1 to 1
